PubChem BioAssay (NCI)
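Results reflect a 48-hour exposure of cells in 96-well plates to compound at five concentrations. Here, GI50 denotes the concentration required for 50% inhibition of growth. TGI is the concentration that stops growth completely.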

What was measured:
Test in all cases: DTP human tumour cell line panel, 48 h
DU-145 prostate = tested on: DU-145 prostate
HT29 colon = tested on: HT29 colon
IGROV1 ovarian = tested on: IGROV1 ovarian
KM12 colon = tested on: KM12 colon
NCI-H226 lung = tested on: NCI-H226 lung
NCI-H460 lung = tested on: NCI-H460 lung
NCI-H522 lung = tested on: NCI-H522 lung
PC-3 prostate = tested on: PC-3 prostate
SF-268 CNS = tested on: SF-268 CNS
SN12C renal = tested on: SN12C renal

| Structure (SMILES) | TGI (DU-145 prostate) | TGI (HT29 colon) | TGI (IGROV1 ovarian) | TGI (KM12 colon) | TGI (NCI-H226 lung) | TGI (NCI-H460 lung) | TGI (NCI-H522 lung) | TGI (PC-3 prostate) | TGI (SF-268 CNS) | TGI (SN12C renal) | GI50 (DU-145 prostate) | GI50 (HT29 colon) | GI50 (IGROV1 ovarian) | GI50 (KM12 colon) | GI50 (NCI-H226 lung) | GI50 (NCI-H460 lung) | GI50 (NCI-H522 lung) | GI50 (PC-3 prostate) | GI50 (SF-268 CNS) | GI50 (SN12C renal) |
| --- | --- | --- | --- | --- | --- | --- | --- | --- | --- | --- | --- | --- | --- | --- | --- | --- | --- | --- | --- | --- |
| O=[N+]([O-])c1cccc(N=C2c3ccccc3CN2c2cccc([N+](=O)[O-])c2)c1 | > 100 µM | > 100 µM | > 100 µM | > 100 µM | > 100 µM | > 100 µM | > 100 µM | > 100 µM | > 100 µM | > 100 µM |  |  |  |  |  |  |  |  |  |  |
| COc1ccccc1/C=C1\Sc2scc(-c3cccc([N+](=O)[O-])c3)[n+]2C1=O | 26.6 µM | 9.97 µM | 26.1 µM | 25.2 µM | 33.5 µM | 26.9 µM | 3.61 µM | 37.4 µM | 18 µM | 11.5 µM |  |  |  |  |  |  |  |  |  |  |
| CC(NC1=CC(=O)c2ncccc2C1=O)C(O)c1ccccc1 (stereo not given) | 16.6 µM | 28.3 µM | 16.4 µM | 24.8 µM | 20.8 µM | 3.22 µM | 24.8 µM | 70.5 µM | 53.4 µM | 24.9 µM |  |  |  |  |  |  |  |  |  |  |
| CC(=O)Oc1c(C)cc(-c2cc(C)c(OC(C)=O)c(C)c2)cc1C | > 100 µM | > 100 µM | > 100 µM | > 100 µM | 94.4 µM | > 100 µM | 98.2 µM | > 100 µM | > 100 µM | > 100 µM |  |  |  |  |  |  |  |  |  |  |
| CN(C)CCN1C(=O)CC[C@@]2(C)C1=CC[C@@H]1[C@@H]2CC[C@@]2(C)[C@H]1CC[C@]2(C)O | > 100 µM | > 100 µM | > 100 µM | > 100 µM | > 100 µM | > 100 µM | > 100 µM | > 100 µM | > 100 µM | > 100 µM |  |  |  |  |  |  |  |  |  |  |
| O=C1C(C(O)(C(F)(F)Cl)C(F)(F)Cl)CCC1C(O)(C(F)(F)Cl)C(F)(F)Cl (stereo not given) | > 10 µM | > 10 µM | > 10 µM | > 10 µM | 9.46 µM | > 10 µM | > 10 µM | > 10 µM | > 10 µM | > 10 µM |  |  |  |  |  |  |  |  |  |  |
| COC(=O)C1Cc2c([nH]c3ccccc23)C(c2cccc(O)c2)N1 (stereo not given) | 55.3 µM | 83.4 µM | > 100 µM | > 100 µM | > 100 µM | 62 µM | > 100 µM | 80.3 µM | > 100 µM | > 100 µM |  |  |  |  |  |  |  |  |  |  |
| COC(=O)C1Cc2ccc(C)cc2C1=O (stereo not given) | > 100 µM | > 100 µM | > 100 µM | > 100 µM | > 100 µM | > 100 µM | > 100 µM | > 100 µM | > 100 µM | > 100 µM |  |  |  |  |  |  |  |  |  |  |
| CC12CC3CC/C(=N\O)C(C1)C3(N1CCOCC1)C/C2=N/O (stereo not given) | > 100 µM | > 100 µM | > 100 µM | > 100 µM | > 100 µM | > 100 µM | > 100 µM | > 100 µM | > 100 µM | > 100 µM |  |  |  |  |  |  |  |  |  |  |
| COC(=O)c1ccc2c(c1)CC1(C2)Cc2cc3c(c(C(=O)OC)c2C1)CCCC3 (stereo not given) | > 100 µM | > 100 µM | > 100 µM | > 100 µM | > 100 µM | > 100 µM | > 100 µM | > 100 µM | > 100 µM | > 100 µM |  |  |  |  |  |  |  |  |  |  |
| N#Cc1ncn(-c2ccccc2)c1N | > 100 µM | > 100 µM | > 100 µM | > 100 µM | > 100 µM | > 100 µM | > 100 µM | > 100 µM | > 100 µM | > 100 µM |  |  |  |  |  |  |  |  |  |  |
| Cc1cn(CC2=NCCN2)c(=O)[nH]c1=O | > 100 µM | > 100 µM | > 100 µM | > 100 µM | > 100 µM | > 100 µM | > 100 µM | > 100 µM | > 100 µM | > 100 µM |  |  |  |  |  |  |  |  |  |  |
| O=C(c1ccccc1)c1nn(-c2ccc(Cl)cc2)c2nc3nc(-c4ccccc4)cc(=O)n3nc12 | > 100 µM | > 100 µM | > 100 µM | > 100 µM | > 100 µM | > 100 µM | > 100 µM | > 100 µM | > 100 µM | 59.8 µM | 30.7 µM | 33.1 µM | 18.3 µM | 31.9 µM | > 100 µM | 39.1 µM | 31.2 µM | 39.3 µM | 42.2 µM | 24 µM |
| CSCCC(NCc1c(O)ccc2ccc(=O)oc12)C(=O)O (stereo not given) | > 100 µM | > 100 µM | > 100 µM | > 100 µM | > 100 µM | > 100 µM | > 100 µM | > 100 µM | > 100 µM | > 100 µM |  |  |  |  |  |  |  |  |  |  |
